Literature values as cited in US4307083A, “LRF Antagonists” (The Salk Institute for Biological Studies, priority 1980, dated 1981).
Non-standard residues stand in square brackets, D forms with d. pGlu = O=C1CC[C@@H](C(=O)O)N1

System: release of gonadotropins
Conditions: versus des-His2 peptide with Gly instead of D-Ala at position 6

## [pGlu]WSY[dA]LRPG-NH2
  Potency as inhibitor of gonadotropin release relative to the same peptide with Gly in the 6-position: 3 times
